Values quoted from earlier work, collected in patent US6767507B1, “Uncomplexed cyclodextrin compositions for odor control” (The Procter & Gamble Company, priority 1998, dated 2004).

Settings: not given

**Q.** With `ClC=CC[N+]12CN3CN(CN(C3)C1)C2.[Cl-]` [Dowicil 200, 1-(3-Chlorallyl)-3,5,7-triaza-1-azoniaadamantane chloride] as the compound, how does the “solubility in water” value read?
**A.** Its value is “freely soluble in water”.

Same assay, conditions: in water

**Q.** For `OCCOc1ccccc1` [2-phenoxyethanol], which water solubility is on record?
**A.** Its water solubility is “about 2.67%”.

**Q.** With `OCCc1ccccc1` [2-phenylethanol] as the compound, how does the water solubility read?
**A.** The water solubility was “about 2%”.

**Q.** With `O=[N+]([O-])C1(Br)COCOC1` [Bronidox L, 5-bromo-5-nitro-1,3-dioxane] as the compound, how does the water solubility read?
**A.** The water solubility was “about 0.46%”.

**Q.** Which water solubility does the source give for `CC1(C)C(=O)N(CO)C(=O)N1CO` [DMDM hydantoin, 1,3-bis(hydroxymethyl)-5,5-dimethyl-2,4-imidazolidinedione] here?
**A.** Its water solubility is “more than 50%”.

**Q.** With `OCc1ccccc1` [benzyl alcohol] as the compound, how does the water solubility read?
**A.** Its water solubility is “about 4%”.

**Q.** For `[H]/N=C(\N/C(=N/[H])NCCCCCCNC(=N)NC(=N)Nc1ccc(Cl)cc1)Nc1ccc(Cl)cc1` [chlorhexidine diacetate, 1,1′-hexamethylene bis(5-(p-chlorophenyl)biguanide), reference compound], which water solubility is on record?
**A.** Its water solubility is “about 1.8%”.

**Q.** For `[H]/N=C(\N/C(=N/[H])NCCCCCCNC(=N)NC(=N)Nc1ccc(Cl)cc1)Nc1ccc(Cl)cc1` [chlorhexidine digluconate, 1,1′-hexamethylene bis(5-(p-chlorophenyl)biguanide), reference compound], which water solubility is on record?
**A.** The water solubility was “about 70%”.

**Q.** Which water solubility does the source give for `CC(C)(O)C(Cl)(Cl)Cl` [chlorobutanol, 1,1,1-Trichloro-2-methylpropan-2-ol] here?
**A.** The water solubility was “about 0.8%”.

**Q.** With `[Na+].[O-][n+]1ccccc1[S-]` [sodium pyrithione] as the compound, how does the water solubility read?
**A.** Its water solubility is “about 50%”.
